Data reported in ChEMBL document CHEMBL1131955, “Solid-phase synthesis of novel inhibitors of farnesyl transferase” (Bioorg Med Chem Lett, 1999).

What was measured:
[1] = target: geranylgeranyltransferase type-I (Rattus norvegicus, UniProt P53610+Q04631); assay: In vitro inhibition of rat brain cytosol Geranylgeranyl transferase type I
[2] = target: Protein farnesyltransferase (Rattus norvegicus, UniProt Q02293+Q04631); assay: In vitro inhibition of rat brain cytosol farnesyl transferase

Row | Structure (SMILES) | IC50 [1] | IC50 [2]
1 | CC(C)=CCC/C(C)=C/CC/C(C)=C/COc1c(F)c(O)c([N+](=O)[O-])c(F)c1F | 12.5 µM | 6.3 µM
2 | O=[N+]([O-])c1c(O)c(F)c(OCc2ccc(-c3ccccc3)cc2)c(F)c1F | > 200 µM | 200 µM
3 | CCCCCCCCCCCCOc1c(F)c(O)c([N+](=O)[O-])c(F)c1F | > 100 µM | > 100 µM
4 | O=[N+]([O-])c1c(O)c(F)c(OCc2ccc3ccccc3c2)c(F)c1F | > 200 µM | 200 µM

Other lines, results leading:

Row | IC50 [1] | IC50 [2] | Structure (SMILES)
5 | 85 µM | 120 µM | C=C(C)C1CC=C(COc2c(F)c(O)c([N+](=O)[O-])c(F)c2F)CC1 (centres undefined)
6 | 58 µM | > 200 µM | O=[N+]([O-])c1c(O)c(F)c(OCc2ccccc2)c(F)c1F
7 | > 200 µM | > 200 µM | C=CCOc1c(F)c(O)c([N+](=O)[O-])c(F)c1F
